US9469650B2, “Melampomagnolide B derivatives” (BOARD OF TRUSTEES OF THE UNIVERSITY OF ARKANSAS, priority 2013, dated 2016)

Key:
SR = test: panel of 60 human tumor cell lines, growth inhibition (Leukemia); settings: Homo sapiens; for CC50: read-out: LC50; for IC (TGI): read-out: TGI
HT29 = test: panel of 60 human tumor cell lines, growth inhibition (Colon Cancer); settings: for Percent Growth: HT29; for GI50 / CC50 / IC (TGI): Homo sapiens; for GI50: HT-29; for CC50: HT-29, read-out: LC50; for IC (TGI): HT-29, read-out: TGI
SNB-19 = test: panel of 60 human tumor cell lines, growth inhibition (CNS Cancer); settings: Homo sapiens; for GI50: SNB-19; for CC50: SNB-19, read-out: LC50; for IC (TGI): SNB-19, read-out: TGI
PC-3 = test: panel of 60 human tumor cell lines, growth inhibition (Prostate Cancer); settings: Homo sapiens; for GI50: PC-3; for CC50: PC-3, read-out: LC50; for IC (TGI): PC-3, read-out: TGI
SK-MEL-28 = test: panel of 60 human tumor cell lines, growth inhibition (Melanoma); settings: Homo sapiens; for GI50: SK-MEL-28; for CC50: SK-MEL-28, read-out: LC50; for IC (TGI): SK-MEL-28, read-out: TGI
TK-10 = test: panel of 60 human tumor cell lines, growth inhibition (Renal Cancer); settings: Homo sapiens; for GI50: TK-10, TK-10; for CC50: TK-10, read-out: LC50; for IC (TGI): TK-10, read-out: TGI
NCI-H322M = test: panel of 60 human tumor cell lines, growth inhibition (Non-Small Cell Lung Cancer); settings: Homo sapiens; for CC50: read-out: LC50; for IC (TGI): read-out: TGI
A498 = test: panel of 60 human tumor cell lines, growth inhibition (Renal Cancer); settings: Homo sapiens; for GI50: A498; for CC50: A498, read-out: LC50; for IC (TGI): A498, read-out: TGI
A549/ATCC = test: panel of 60 human tumor cell lines, growth inhibition (Non-Small Cell Lung Cancer); settings: Homo sapiens; for GI50: A549; for CC50: A549, read-out: LC50; for IC (TGI): A549, read-out: TGI
OVCAR-3 = test: panel of 60 human tumor cell lines, growth inhibition (Ovarian Cancer)
UACC-62 = test: panel of 60 human tumor cell lines, growth inhibition (Melanoma); settings: Homo sapiens; for GI50: UACC-62; for CC50: UACC-62, read-out: LC50; for IC (TGI): UACC-62, read-out: TGI
UACC-257 = test: as above; settings: for GI50 / CC50: Homo sapiens; for GI50 / Percent Growth / TGI: UACC-257; for CC50: UACC-257, read-out: LC50; for TGI: NCI five dose
NCI-H23 = test: panel of 60 human tumor cell lines, growth inhibition (Non-Small Cell Lung Cancer); settings: Homo sapiens; for GI50: NCI-H23; for CC50: NCI-H23, read-out: LC50; for IC (TGI): NCI-H23, read-out: TGI
U251 = test: panel of 60 human tumor cell lines, growth inhibition (CNS Cancer); settings: Homo sapiens; for GI50: U-251; for CC50: U-251, read-out: LC50; for IC (TGI): U-251, read-out: TGI
SNB-75 = test: as above; settings: Homo sapiens; for GI50: SNB-75; for CC50: SNB-75, read-out: LC50; for IC (TGI): SNB-75, read-out: TGI
MDA-MB-468 = test: panel of 60 human tumor cell lines, growth inhibition (Breast Cancer); settings: Homo sapiens; for GI50: MDA-MB-468; for CC50: MDA-MB-468, read-out: LC50; for IC (TGI): MDA-MB-468, read-out: TGI
SF-295 = test: panel of 60 human tumor cell lines, growth inhibition (CNS Cancer); settings: Homo sapiens; for GI50: SF-295; for CC50: SF-295, read-out: LC50; for IC (TGI): SF-295, read-out: TGI
M14 = test: panel of 60 human tumor cell lines, growth inhibition (Melanoma); settings: Homo sapiens; for GI50: M14; for CC50: M14, read-out: LC50; for IC (TGI): M14, read-out: TGI

C=C1C(=O)O[C@H]2[C@H]1CC/C(COC(=O)OCCN(C)C)=C\CC[C@@]1(C)O[C@@H]21 [JVM 2-35]
GI50 (SR): 2.22 µM
CC50 (SR): > 100 µM
IC (TGI) (SR): 12.1 µM
Percent Growth (HT29; Log10 Concentration −4.0): −29%
Percent Growth (HT29; Log10 Concentration −5.0): 91%
Percent Growth (HT29; Log10 Concentration −6.0): 98%
Percent Growth (HT29; Log10 Concentration −7.0): 99%
Percent Growth (HT29; Log10 Concentration −8.0): 98%
GI50 (HT29): 21.8 µM
CC50 (HT29): > 100 µM
IC (TGI) (HT29): 57.2 µM
GI50 (SNB-19): 18.6 µM
CC50 (SNB-19): > 100 µM
IC (TGI) (SNB-19): 62 µM
GI50 (PC-3): 14 µM
CC50 (PC-3): 64.5 µM
IC (TGI) (PC-3): 30 µM
GI50 (SK-MEL-28): 4.27 µM
CC50 (SK-MEL-28): 48.3 µM
IC (TGI) (SK-MEL-28): 17.9 µM
GI50 (TK-10; NCI five dose): 3.92 µM
CC50 (TK-10): 43.8 µM
IC (TGI) (TK-10): 15.1 µM
GI50 (NCI-H322M): 28.7 µM
CC50 (NCI-H322M): > 100 µM
IC (TGI) (NCI-H322M): > 100 µM
GI50 (A498): 13.3 µM
CC50 (A498): 56.6 µM
IC (TGI) (A498): 27.4 µM
GI50 (A549/ATCC): 16.3 µM
CC50 (A549/ATCC): 71.6 µM
IC (TGI) (A549/ATCC): 34.2 µM
GI50 (OVCAR-3; Homo sapiens, OVCAR-3): 3.31 µM
CC50 (OVCAR-3; Homo sapiens, OVCAR-3, read-out: LC50): 35.3 µM
IC (TGI) (OVCAR-3; Homo sapiens, OVCAR-3, read-out: TGI): 11.5 µM
Percent Growth (OVCAR-3; OVCAR-3, Log10 Concentration −4.0): −96%
Percent Growth (OVCAR-3; OVCAR-3, Log10 Concentration −5.0): 6%
Percent Growth (OVCAR-3; OVCAR-3, Log10 Concentration −6.0): 97%
Percent Growth (OVCAR-3; OVCAR-3, Log10 Concentration −7.0): 106%
Percent Growth (OVCAR-3; OVCAR-3, Log10 Concentration −8.0): 98%
GI50 (UACC-62): 6.13 µM
CC50 (UACC-62): 46.6 µM
IC (TGI) (UACC-62): 19.9 µM
GI50 (UACC-257): 10.2 µM
CC50 (UACC-257): 55.2 µM
Percent Growth (UACC-257; Log10 Concentration −4.0): −85%
Percent Growth (UACC-257; Log10 Concentration −5.0): 51%
Percent Growth (UACC-257; Log10 Concentration −6.0): 92%
Percent Growth (UACC-257; Log10 Concentration −7.0): 86%
Percent Growth (UACC-257; Log10 Concentration −8.0): 93%
TGI (UACC-257): 2.38E−5
GI50 (NCI-H23): 16 µM
CC50 (NCI-H23): 91 µM
IC (TGI) (NCI-H23): 38.2 µM
GI50 (U251): 20.3 µM
CC50 (U251): > 100 µM
IC (TGI) (U251): 45.2 µM
GI50 (SNB-75): 4.96 µM
CC50 (SNB-75): 50.7 µM
IC (TGI) (SNB-75): 21.5 µM
GI50 (MDA-MB-468): 1.46 µM
CC50 (MDA-MB-468): 50.4 µM
IC (TGI) (MDA-MB-468): 9.2 µM
GI50 (SF-295): 24.7 µM
CC50 (SF-295): > 100 µM
IC (TGI) (SF-295): > 100 µM
GI50 (M14): 3.71 µM
CC50 (M14): 45.6 µM
IC (TGI) (M14): 16.4 µM

C=C1C(=O)O[C@H]2[C@H]1CC/C(COC(=O)Nc1n[nH]c(SC)n1)=C\CC[C@@]1(C)O[C@@H]21 [JVM 64, ((1aR,7aS,10aS,10bS,E)-1a-methyl-8-methylene-9-oxo-1a,2,3,6,7,7a,8,9,10a,10b-decahydrooxireno[2′,3′:9,10]cyclodeca[1,2-b]furan-5-yl)methyl-(5-(methylthio)-1H-1,2,4-triazol-3-yl)carbamate]
GI50 (SR): 2.36 µM
CC50 (SR): > 100 µM
IC (TGI) (SR): 7.13 µM
Percent Growth (HT29; Log10 Concentration −4.0): −79%
Percent Growth (HT29; Log10 Concentration −5.0): −11%
Percent Growth (HT29; Log10 Concentration −6.0): 92%
Percent Growth (HT29; Log10 Concentration −7.0): 101%
Percent Growth (HT29; Log10 Concentration −8.0): 102%
GI50 (HT29): 2.55 µM
CC50 (HT29): 37.4 µM
IC (TGI) (HT29): 7.77 µM
GI50 (SNB-19): 15.9 µM
CC50 (SNB-19): > 100 µM
IC (TGI) (SNB-19): 40 µM
GI50 (PC-3): 8.51 µM
CC50 (PC-3): 77 µM
IC (TGI) (PC-3): 26.8 µM
GI50 (SK-MEL-28): 1.85 µM
CC50 (SK-MEL-28): 17.9 µM
IC (TGI) (SK-MEL-28): 4.86 µM
GI50 (TK-10; 5-dose assay): 2.51 µM
GI50 (TK-10; NCI five dose): 2.51 µM
CC50 (TK-10): 27.4 µM
IC (TGI) (TK-10): 7.16 µM
GI50 (NCI-H322M): 14.2 µM
CC50 (NCI-H322M): 60.3 µM
IC (TGI) (NCI-H322M): 29.2 µM
GI50 (A498): 2.56 µM
CC50 (A498): 27.8 µM
IC (TGI) (A498): 7.67 µM
GI50 (A549/ATCC): 4.19 µM
CC50 (A549/ATCC): 83.5 µM
IC (TGI) (A549/ATCC): 19.9 µM
GI50 (UACC-62): 1.6 µM
CC50 (UACC-62): 15 µM
IC (TGI) (UACC-62): 4.35 µM
GI50 (UACC-257): 1.66 µM
CC50 (UACC-257): 31.9 µM
Percent Growth (UACC-257; Log10 Concentration −4.0): −80%
Percent Growth (UACC-257; Log10 Concentration −5.0): −20%
Percent Growth (UACC-257; Log10 Concentration −6.0): 70%
Percent Growth (UACC-257; Log10 Concentration −7.0): 93%
Percent Growth (UACC-257; Log10 Concentration −8.0): 102%
TGI (UACC-257): 6.02E−6
GI50 (NCI-H23): 3.21 µM
CC50 (NCI-H23): 63.6 µM
IC (TGI) (NCI-H23): 14.1 µM
GI50 (U251): 3.62 µM
CC50 (U251): 51 µM
IC (TGI) (U251): 15.8 µM
GI50 (SNB-75): 1.71 µM
CC50 (SNB-75): 33.4 µM
IC (TGI) (SNB-75): 10.1 µM
GI50 (MDA-MB-468): 1.29 µM
CC50 (MDA-MB-468): 21.8 µM
IC (TGI) (MDA-MB-468): 4.04 µM
GI50 (SF-295): 14.1 µM
CC50 (SF-295): 64.1 µM
IC (TGI) (SF-295): 30.1 µM
GI50 (M14): 1.59 µM
CC50 (M14): 7.09 µM
IC (TGI) (M14): 3.36 µM
